test: in vitro; settings: human, hela cells, % viability

Which viability at 28.5 h, 10 µM does the source give for `CC(C)c1cc2cc3ccc(=O)oc3cc2o1` [CBK033944] here?
The viability at 28.5 h, 10 µM was 93.6%.

With `Oc1ccc(Oc2ccc(Oc3ccc(O)cc3)cc2)cc1` [CBK033968] as the compound, how does the viability at 28.5 h, 10 µM read?
The viability at 28.5 h, 10 µM was 107%.

With `CC(CCc1ccc(O)cc1)NC1CCCC1` (stereo not drawn) [CBK033987] as the compound, how does the viability at 28.5 h, 10 µM read?
The viability at 28.5 h, 10 µM was 102%.

Which viability at 28.5 h, 10 µM does the source give for `CCCCN1CCC(CNc2cc(C(F)(F)F)c3scc(C(=O)NC4CCC4)c3n2)CC1` [CBK034026C] here?
The viability at 28.5 h, 10 µM was 103%.

With `O=S(=O)(c1ccc(N2CCNCC2)cc1)n1ccc2ccc(Br)cc21` [CBK034034C] as the compound, how does the viability at 28.5 h, 10 µM read?
Its viability at 28.5 h, 10 µM is 70.6%.

Which viability at 28.5 h, 10 µM does the source give for `CCCc1ccc(S(=O)(=O)Nc2ccc(C(=O)O)cc2)cc1` [CBK034044] here?
Its viability at 28.5 h, 10 µM is 114%.

With `O=C(O)c1ccc(NS(=O)(=O)c2cc(F)c(Br)cc2F)cc1` [CBK034045] as the compound, how does the viability at 28.5 h, 10 µM read?
Its viability at 28.5 h, 10 µM is 101%.

With `O=C(O)c1ccc(NS(=O)(=O)c2cc(Cl)sc2Cl)cc1` [CBK034046] as the compound, how does the viability at 28.5 h, 10 µM read?
The viability at 28.5 h, 10 µM was 99.9%.

For `COc1ccc(Br)cc1S(=O)(=O)Nc1ccc(C(=O)O)cc1` [CBK034047], which viability at 28.5 h, 10 µM is on record?
Its viability at 28.5 h, 10 µM is 106%.

Which viability at 28.5 h, 10 µM does the source give for `COc1ccc(S(=O)(=O)Nc2ccc(C(=O)O)cc2)cc1OC` [CBK034048] here?
The viability at 28.5 h, 10 µM was 96.2%.

For `O=C(O)c1ccc(NS(=O)(=O)c2cc(Br)c(Cl)s2)cc1` [CBK034049], which viability at 28.5 h, 10 µM is on record?
The viability at 28.5 h, 10 µM was 95.8%.

Which viability at 28.5 h, 10 µM does the source give for `O=C(O)c1ccc(NS(=O)(=O)c2ccc3ccccc3c2)cc1` [CBK034053] here?
Its viability at 28.5 h, 10 µM is 96.6%.

Which viability at 28.5 h, 10 µM does the source give for `Cc1ccc(S(=O)(=O)Nc2ccc(C(=O)O)cc2)cc1[N+](=O)[O-]` [CBK034055] here?
Its viability at 28.5 h, 10 µM is 94.8%.

Which viability at 28.5 h, 10 µM does the source give for `O=C(O)c1ccc(NS(=O)(=O)c2ccc(Br)cc2)cc1` [CBK034058] here?
Its viability at 28.5 h, 10 µM is 97.6%.

For `NS(=O)(=O)c1cnc(Cl)c(Br)c1` [CBK034079], which viability at 28.5 h, 10 µM is on record?
Its viability at 28.5 h, 10 µM is 92.5%.

With `NC(=O)CCCCn1c2c(c3cccc(C(=O)O)c31)CCCCC2` [CBK034088] as the compound, how does the viability at 28.5 h, 10 µM read?
Its viability at 28.5 h, 10 µM is 104%.

With `O=C(Nc1cccnc1N1CCNCC1)c1ccc(-c2cccc(C(F)(F)F)c2)o1` [CBK034119T] as the compound, how does the viability at 28.5 h, 10 µM read?
The viability at 28.5 h, 10 µM was 90.1%.

For `COc1ccc(/C=C(\C)C(=O)Nc2cccnc2N2CCNCC2)cc1OC` [CBK034124T], which viability at 28.5 h, 10 µM is on record?
The viability at 28.5 h, 10 µM was 88.3%.

With `O=C(/C=C/c1cccnc1)Nc1ccccc1N1CCNCC1` [CBK034136T] as the compound, how does the viability at 28.5 h, 10 µM read?
Its viability at 28.5 h, 10 µM is 102%.

For `Cn1cc(C(=O)Nc2ccccc2N2CCNCC2)c2ccccc21` [CBK034141T], which viability at 28.5 h, 10 µM is on record?
Its viability at 28.5 h, 10 µM is 92.2%.

Which viability at 28.5 h, 10 µM does the source give for `COc1ccc([C@@]23CC[C@@H](NC(=O)Nc4ccc5ccccc5c4)C[C@@H]2N(C)CC3)cc1OC` [CBK034181T] here?
The viability at 28.5 h, 10 µM was 102%.

With `CCOCCc1nsc(NS(=O)(=O)c2cccc(Cl)c2C)n1` [CBK034245] as the compound, how does the viability at 28.5 h, 10 µM read?
The viability at 28.5 h, 10 µM was 102%.

For `Cc1ccc(S(=O)(=O)N2CCN(C)CC2)cc1NC(=O)c1ccc(Br)o1` [CBK034260C], which viability at 28.5 h, 10 µM is on record?
Its viability at 28.5 h, 10 µM is 99.3%.

With `O=C(NCc1ccncc1)c1csc2c(C(F)(F)F)cc(N3CCN(Cc4ccccc4)CC3)nc12` [CBK034294T] as the compound, how does the viability at 28.5 h, 10 µM read?
Its viability at 28.5 h, 10 µM is 98.6%.

Which viability at 28.5 h, 10 µM does the source give for `NC(=O)c1ccc(SCC(=O)O)c([N+](=O)[O-])c1` [CBK034310] here?
Its viability at 28.5 h, 10 µM is 97.7%.

With `CC(C)C(=O)NCCN1CCOCC1` [CBK034322] as the compound, how does the viability at 28.5 h, 10 µM read?
Its viability at 28.5 h, 10 µM is 115%.

Which viability at 28.5 h, 10 µM does the source give for `CCOC(=O)N1CCCN(C(=O)OCC)CC1` [CBK034324] here?
Its viability at 28.5 h, 10 µM is 101%.

For `CCCc1ccc(S(=O)(=O)Nc2cccc(C(=O)OCC)c2)cc1` [CBK034332], which viability at 28.5 h, 10 µM is on record?
The viability at 28.5 h, 10 µM was 92.5%.

Which viability at 28.5 h, 10 µM does the source give for `CCOC(=O)c1cccc(NS(=O)(=O)c2cc(Br)ccc2OC)c1` [CBK034336] here?
The viability at 28.5 h, 10 µM was 63.3%.

For `CCOC(=O)c1cccc(NS(=O)(=O)c2ccc(-c3ccccc3)cc2)c1` [CBK034341], which viability at 28.5 h, 10 µM is on record?
Its viability at 28.5 h, 10 µM is 92.8%.

With `CCOC(=O)c1cccc(NS(=O)(=O)c2cccc3cccnc23)c1` [CBK034345] as the compound, how does the viability at 28.5 h, 10 µM read?
The viability at 28.5 h, 10 µM was 57.2%.

For `CCOC(=O)c1cccc(NS(=O)(=O)c2ccc(Br)cc2)c1` [CBK034346], which viability at 28.5 h, 10 µM is on record?
Its viability at 28.5 h, 10 µM is 97.7%.

For `CCOC(=O)c1cccc(NS(=O)(=O)c2ccc(NC(C)=O)cc2)c1` [CBK034349], which viability at 28.5 h, 10 µM is on record?
Its viability at 28.5 h, 10 µM is 78.8%.

Which viability at 28.5 h, 10 µM does the source give for `CC(=O)Nc1cc(S(N)(=O)=O)c(F)cc1C` [CBK034356] here?
The viability at 28.5 h, 10 µM was 94.1%.

Which viability at 28.5 h, 10 µM does the source give for `CCN(CC)C(=O)c1ccc(NS(=O)(=O)c2cccc(Cl)c2C)cc1` [CBK034393] here?
The viability at 28.5 h, 10 µM was 108%.

For `CCN(CC)C(=O)c1ccc(NS(=O)(=O)c2ccc(-c3ccccc3)cc2)cc1` [CBK034395], which viability at 28.5 h, 10 µM is on record?
Its viability at 28.5 h, 10 µM is 97.5%.
